“Also recorded” adds a separate entry of the source.
Experiments:
Format in all cases: in vivo
Collagen Type 1 mRNA = assay: UUO mice kidney quantitative RT-PCR, Collagen Type 1
Experimental: (§1) Quantitative RT-PCR: Total ribonucleic acid (RNA) was extracted from kidney samples using RNAiso (Takara Bio, Japan) according to the manufacturer's instructions. One μg of RNA was reverse-transcribed using a reaction mixture containing […] (mM) of magnesium chloride (MgCl2) (F. Hoffmann-La Roche, Switzerland), 40 U RNase inhibitor (Toyobo, Japan), 0.5 mM dNTP (Promega, USA), 6.28 μM random hexamer (Promega), 5× first strand buffer (Promega), 10 mM dithiothreitol (Invitrogen, USA) and 200 U MMLV-RT (Invitrogen) in a final volume of 20 μL. The reaction was carried out for 1 hour at 37° C., followed by 5 minutes at 99° C. Real-time PCR was performed using real-time PCR DICE and TB Green™ Premix Ex Taq™ II (Takara Bio). To calculate the relative […] (mRNA) expression level, the expression of each gene (e.g., α-SMA, TIMP-1, TGF-β and Collagen Type 1) was normalized to that of reference gene 36B4 (gene symbol: Rplp0). Information regarding the PCR-primer sets and the plate layout are described in Tables 1 and 2.

TGF-β mRNA = assay: UUO mice kidney quantitative RT-PCR, TGF-β
Experimental: as §1

UUO mice = assay: UUO mice: body weight, kidney weight, general condition; conditions: n = 8
Experimental: UUO Surgery: On day 0 of the study, UUO surgery was performed on mice under pentobarbital sodium anesthesia. The mouse's hair was first shaved and then abdomen cut open to exteriorize the mouse's left ureter. The ureter was ligated 4-0 nylon sutures at two points. The mouse's peritoneum and skin were then closed with sutures, and the mouse transferred to a clean cage until recovered from the anesthesia. Sham operated mice had their left ureter exposed but not ligated. […]
Animals: Seven-week-old female C57BL/6 mice (i.e., animals) were obtained from Japan SLC, Inc. (Japan) and were housed and fed with a normal diet (CE-2; CLEA Japan, Japan) under controlled conditions. The animals were maintained in a specific-pathogen free (SPF) facility under controlled conditions of temperature (e.g., 23±2° C.), humidity (e.g., 45±10%), lighting (e.g., 12-hour artificial light and dark cycles; light from 8:00 to 20:00) and air exchange. A high pressure was maintained in the experimental room to prevent contamination of the facility. The animals were housed in TPX cages (CLEA Japan) with a maximum of 4 mice per cage. Sterilized Paper-Clean (Japan SLC) was used for bedding and replaced once a week. Sterilized solid normal diet was provided ad libitum, being placed in a metal lid on the top of the cage. Pure water was also provided ad libitum from a water bottle equipped with a rubber stopper and a sipper tube. Water bottles were replaced once a week, cleaned, and sterilized in an autoclave and reused. Mice were identified by ear punch and each cage was labeled with a specific identification code.
Animal Monitoring and Sacrifice: The viability, clinical signs and behavior for the mice were monitored daily. Individual body weight was measured daily before treatment during the treatment period. […] The animals were sacrificed by exsanguination through direct cardiac puncture under isoflurane anesthesia (Pfizer Inc.) at Day 14.

[1] = system: UUO-induced renal interstitial fibrosis; assay: UUO mice: kidney hydroxyproline content; conditions: for Kidney hydroxyproline: n = 8
Experimental: Measurement of Kidney Biochemistry: To quantify kidney hydroxyproline content, frozen left kidney samples were processed by an alkaline-acid hydrolysis method as follows: kidney samples were dissolved in 2 normal (N) sodium hydroxide (NaOH) at 65° C. and autoclaved at 121° C. for 20 minutes. The lysed samples (400 μL) were acid-hydrolyzed with 400 μL of 6N hydrochloride acid (HCl) at 121° C. for 20 minutes, and neutralized with 400 μL of 4N NaOH containing 10 mg/mL of activated carbon. An AC buffer (e.g., 2.2M acetic acid/0.48M citric acid, 400 μL) was added to the samples, followed by centrifugation to collect the supernatant. A standard curve of hydroxyproline was constructed with serial dilutions of trans-4-hydroxy-L-proline (Sigma-Aldrich, USA) starting at 16 μg/mL. The prepared samples and standards (e.g., each 400 μL) were mixed with 400 μL chloramine T solution (Wako Pure Chemical Industries, Japan) and incubated for 25 minutes at room temperature. The samples were then mixed with Ehrlich's solution (e.g., 400 μL) and heated at 65° C. for 20 minutes to develop the color. After samples were cooled on ice and centrifuged to remove precipitates, the optical density of each supernatant was measured at 560 nanometers (nm). The concentrations of hydroxyproline were calculated from the hydroxyproline standard curve. Protein concentrations of kidney samples were determined using a bicinchoninic (BCA) protein assay kit (Thermo Fisher Scientific, USA) and used to normalize the calculated hydroxyproline values. Kidney hydroxyproline contents were expressed as microgram (μg) per mg protein.
Sample Collection: For serum samples, non-fasting blood was collected in serum separate tubes without anticoagulant through direct cardiac puncture and centrifuged at 3,500×g for 4 minutes at 4° C. The supernatant was collected and stored at −80° C. for shipping. For kidney samples, the left kidney was collected and cut into 2 pieces horizontally. […] Paraffin blocks were stored at room temperature for histological analyses. […] The anterior part of left kidney was snap frozen in liquid nitrogen and stored at −80° C. for gene expression assay. The posterior part of left kidney was snap frozen in liquid nitrogen and stored at −80° C. for kidney biochemistry.

[2] = system: UUO-induced renal interstitial fibrosis; assay: UUO mice: Sirius red staining of kidney sections, fibrosis area; conditions: for Sirius red-positive area / Sirius red-positive area (%) _Median: UUO mice kidney, Day 14, n = 8; for Sirius red-positive area: mean ± SD; for fibrosis area compared with the Vehicle group: UUO mice
Experimental: Histopathological analysis: To visualize collagen deposition, kidney sections were stained using picro-Sirius red solution (Waldeck, Germany). For quantification of interstitial fibrosis area, bright field images in the corticomedullary region were captured using a digital camera (e.g., DFC295; Leica Microsystems, Germany) at 200-fold magnification, and the positive areas in 5 fields/section were measured using ImageJ software (National Institute of Health, USA).

TIMP-1 mRNA = assay: UUO mice kidney quantitative RT-PCR, TIMP-1
Experimental: as §1

[3] = 50 mg/kg PO QD Day 0-13, normalized to 36B4, Sham 1.00, mean ± SD
[4] = 500 mg/kg PO QD Day 0-13, normalized to 36B4, Sham 1.00, mean ± SD
[5] = 50 mg/kg PO QD Day 0-13, Day 14, mean ± SD
[6] = 500 mg/kg PO QD Day 0-13, Day 14, mean ± SD
[7] = 50 mg/kg PO QD Day 0-13, Mann-Whitney U test, trend p<0.1, 50 mg/kg
[8] = 5 mg/kg PO QD Day 0-13, normalized to 36B4, Sham 1.00, mean ± SD
[9] = 250 mg/kg PO QD Day 0-13, normalized to 36B4, Sham 1.00, mean ± SD
[10] = 5 mg/kg PO QD Day 0-13, Day 14, mean ± SD
[11] = 250 mg/kg PO QD Day 0-13, Day 14, mean ± SD

15-HEPE [DS102]
Collagen Type 1 relative mRNA expression level (Collagen Type 1 mRNA; [3]): 11.80 ± 1.78 | Collagen Type 1 relative mRNA expression level (Collagen Type 1 mRNA; [4]): 14.09 ± 2.88 | TGF-β relative mRNA expression level (TGF-β mRNA; [3]): 4.31 ± 0.69 | TGF-β relative mRNA expression level (TGF-β mRNA; [4]): 5.37 ± 0.76 | Left Kidney Weight (UUO mice; [5]): 469 ± 60 mg | Right Kidney Weight (UUO mice; [5]): 133 ± 10 mg | Left Kidney Weight (UUO mice; [6]): 487 ± 108 mg | Right Kidney Weight (UUO mice; [6]): 136 ± 6 mg | Kidney hydroxyproline [1, 5]: 8.47 ± 2.08 μg/mg total protein | kidney hydroxyproline contents compared with the Vehicle group ([1]; 50 mg/kg PO QD Day 0-13, significance p<0.05, 50 mg/kg): significant decrease | Kidney hydroxyproline [1, 6]: 8.59 ± 1.99 μg/mg total protein | kidney hydroxyproline contents compared with the Vehicle group ([1]; 500 mg/kg PO QD Day 0-13, significance p<0.05): significant decreases | Sirius red-positive area ([2]; 50 mg/kg PO QD Day 0-13): 5.01 ± 3.11% | Sirius red-positive area (%) _Median ([2]; 50 mg/kg PO QD Day 0-13): 4.19 ± 3.33% | Sirius red-positive area ([2]; 500 mg/kg PO QD Day 0-13): 4.01 ± 1.92% | Sirius red-positive area (%) _Median ([2]; 500 mg/kg PO QD Day 0-13): 3.08 ± 1.16% | fibrosis area compared with the Vehicle group [2, 7]: tended to decrease; also recorded: reduction trend | fibrosis area compared with the Vehicle group ([2]; 500 mg/kg PO QD Day 0-13, Mann-Whitney U test, trend p<0.1, 500 mg/kg): tended to decrease; also recorded: reduction trend | TIMP-1 relative mRNA expression level (TIMP-1 mRNA; [3]): 138.30 ± 30.39 | TIMP-1 relative mRNA expression level (TIMP-1 mRNA; [4]): 124.80 ± 28.60

CCCCCC(O)/C=C/C=C\C/C=C\CCCCCCC(=O)O (stereo not drawn) [DS109, 15-HETrE]
Collagen Type 1 relative mRNA expression level (Collagen Type 1 mRNA; [8]): 10.76 ± 1.45 | Collagen Type 1 relative mRNA expression level (Collagen Type 1 mRNA; [3]): 15.23 ± 11.52 | Collagen Type 1 relative mRNA expression level (Collagen Type 1 mRNA; [9]): 13.88 ± 1.91 | TGF-β relative mRNA expression level (TGF-β mRNA; [8]): 4.29 ± 0.93 | TGF-β relative mRNA expression level (TGF-β mRNA; [3]): 6.01 ± 4.77 | TGF-β relative mRNA expression level (TGF-β mRNA; [9]): 5.48 ± 0.36 | Body Weight (UUO mice; [10]): 19.1 ± 0.9 g | Left Kidney Weight (UUO mice; [10]): 533 ± 138 mg | Left Kidney-to-Body Weight Ratio (UUO mice; [10]): 2.79 ± 0.65% | Right Kidney Weight (UUO mice; [10]): 137 ± 7 mg | Right Kidney-to-Body Weight Ratio (UUO mice; [10]): 0.71 ± 0.04% | Body Weight (UUO mice; [5]): 18.6 ± 0.6 g | Left Kidney Weight (UUO mice; [5]): 523 ± 91 mg | Left Kidney-to-Body Weight Ratio (UUO mice; [5]): 2.83 ± 0.50% | Right Kidney Weight (UUO mice; [5]): 135 ± 6 mg | Right Kidney-to-Body Weight Ratio (UUO mice; [5]): 0.73 ± 0.05% | Body Weight (UUO mice; [11]): 18.6 ± 0.7 g | Left Kidney Weight (UUO mice; [11]): 425 ± 105 mg | Left Kidney-to-Body Weight Ratio (UUO mice; [11]): 2.26 ± 0.53% | Right Kidney Weight (UUO mice; [11]): 130 ± 13 mg | Right Kidney-to-Body Weight Ratio (UUO mice; [11]): 0.70 ± 0.05% | Kidney hydroxyproline [1, 10]: 9.94 ± 2.02 μg/mg total protein | kidney hydroxyproline contents compared with the Vehicle group ([1]; 5 mg/kg PO QD Day 0-13, significance p<0.05): significant decreases | Kidney hydroxyproline [1, 5]: 13.94 ± 6.44 μg/mg total protein | kidney hydroxyproline contents compared with the Vehicle group ([1]; 50 mg/kg PO QD Day 0-13, significance p<0.05): no significant difference | Kidney hydroxyproline [1, 11]: 8.30 ± 1.04 μg/mg total protein | kidney hydroxyproline contents compared with the Vehicle group ([1]; 250 mg/kg PO QD Day 0-13, significance p<0.05): significant decreases | Sirius red-positive area ([2]; 5 mg/kg PO QD Day 0-13): 4.23 ± 1.90% | Sirius red-positive area (%) _Median ([2]; 5 mg/kg PO QD Day 0-13): 3.22 ± 1.47% | Sirius red-positive area ([2]; 50 mg/kg PO QD Day 0-13): 3.58 ± 1.04% | Sirius red-positive area (%) _Median ([2]; 50 mg/kg PO QD Day 0-13): 3.28 ± 1.41% | Sirius red-positive area ([2]; 250 mg/kg PO QD Day 0-13): 4.71 ± 0.96% | Sirius red-positive area (%) _Median ([2]; 250 mg/kg PO QD Day 0-13): 3.76 ± 0.81% | fibrosis area compared with the Vehicle group ([2]; 5 mg/kg PO QD Day 0-13, Mann-Whitney U test, trend p<0.1, 5 mg/kg): tended to decrease; also recorded: reduction trend | fibrosis area compared with the Vehicle group ([2]; 50 mg/kg PO QD Day 0-13, Bonferroni Multiple Comparison): tended to decrease | fibrosis area compared with the Vehicle group [2, 7]: tended to decrease; also recorded: reduction trend | fibrosis area compared with the Vehicle group ([2]; 250 mg/kg PO QD Day 0-13, Mann-Whitney U test, trend p<0.1, 250 mg/kg): tended to decrease; also recorded: reduction trend | TIMP-1 relative mRNA expression level (TIMP-1 mRNA; [8]): 153.60 ± 37.12 | TIMP-1 relative mRNA expression level (TIMP-1 mRNA; [3]): 167.70 ± 122.60 | TIMP-1 relative mRNA expression level (TIMP-1 mRNA; [9]): 180.90 ± 23.12

— US12076304B2, “Compositions comprising 15-HEPE and methods of treating or preventing hematologic disorders, and/or related diseases” (priority 2020, dated 2024)
